Source: US8710063B2, “Purine compounds used as CB2 agonists” (priority 2010, dated 2014)
Counter-ions that a name gives are not always drawn.

How the values were obtained:
hCB1-CHO membranes = molecular target: T1, hCB1-CHO membranes (Homo sapiens, UniProt P21554); test: CB1 in vitro functional assay, SPA based GTP-γ-35S binding, agonist mode (whole membrane capture); type: biochemical; settings: normalized to methanandamide, read-out: relative EC50 value for CB1
T1 construct: expressed in transfected cells; host or cells: CHO cells
Protocol: (§1) CB1 and CB2 In Vitro Functional Assays
(§2) Exemplified compounds are tested in agonist mode using a SPA based GTP-γ-^35S binding assay. All assay components are prepared in assay buffer made up of 20 mM HEPES, 100 mM NaCl, 5 mM MgCl2, (pH 7.4 at room temperature). Semi-log compound dilutions are done in assay buffer containing BSA (final 0.125%). GTP-γ^35-S binding is measured in a 96 well format using a whole membrane capture technique for the CB1 assay and modifications of an antibody capture technique previously described (DeLapp et al. J Pharmacol Exp Ther 289:946-955, 1999) for the CB2 assay. All incubations are done at room temperature.
hCB1-CHO membranes, GDP (1 uM final), and saponin (10 ug/mL final) are added to assay buffer and homogenized. Diluted compounds, GTP-γ-^35S (500 nM final) and membranes are added to the assay plate and incubated for 30 minutes. Then 1 mg/well Wheatgerm Agglutinin SPA bead is added, and the plates are sealed, vortexed, and incubated for an additional hour. Plates are then centrifuged at 700×g for 10 minutes and counted for 1 minute per well using a scintillation counter.
To analyze data, first subtract background from all wells. Determine percent agonist efficacy by normalizing agonist/inverse agonist dose response data to a full agonist (methanandamide) response. Analyze the data using a 4-parameter logistic reduced fit with Activity Base and XLFit3.

rat CB2 receptor = molecular target: T2, rat CB2 receptor (Rattus norvegicus, UniProt Q9QZN9); test: Displacement of 3H-CP55940 from rat CB2 receptors; type: binding; settings: displacement of 3H-CP55940, rat CB2 membrane homogenates
T2 construct: expressed in transfected cells
T2 sequence (Q9QZN9 1-360): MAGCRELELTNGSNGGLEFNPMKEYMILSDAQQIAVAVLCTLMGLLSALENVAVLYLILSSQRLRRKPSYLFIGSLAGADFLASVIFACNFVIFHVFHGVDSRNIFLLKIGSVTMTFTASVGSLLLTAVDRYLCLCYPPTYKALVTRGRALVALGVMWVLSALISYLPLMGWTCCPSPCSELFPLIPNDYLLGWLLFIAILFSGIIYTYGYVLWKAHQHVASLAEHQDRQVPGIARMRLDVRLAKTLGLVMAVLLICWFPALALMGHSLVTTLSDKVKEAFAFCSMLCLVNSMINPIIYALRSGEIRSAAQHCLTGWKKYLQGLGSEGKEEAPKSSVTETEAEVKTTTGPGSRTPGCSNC
Protocol: (§3) Displacement of 3H-CP55940 from Human and Rat CB2 Receptors
(§4) The methods of Felder et al. (Mol. Pharmaocol. 48:443-450, 1995) were utilized with minor modifications. Specifically, membrane homogenates from cells stably or transiently expressing the human or rat CB2 receptor were washed by centrifugation and diluted into a 50 mM Tris HCl (pH 7.4), 5 mM MgCl2, 2.5 mM EDTA, and 0.1% BSA buffer. Specific binding of 3H-CP55940 was defined with 1 μM CP55940. The ability of compounds to displace specific 3H-CP55940 binding was tested over a range of concentrations in the Tris, MgCl2, EDTA, BSA buffer in the presence of 1% dimethyl sulfoxide by incubating at room temperature for 90 minutes in a volume of 300 μl. Unifilter 96-well microplates pretreated with 0.5% polyvinylpyrrolidone, 0.1% polysorbate 20 in water were washed three times with cold Tris buffer. The reaction mixture was then transferred to the filter plate immediately before terminating the incubation by rapid filtration and three 200 μl washes with cold Tris buffer. After the filter plates dried, microscint 20 was added to each well, the plate sealed and counted for determination of disintegrations per minute. The displacement curves were graphed and the resulting Ki values determined utilizing Graphpad Prism.

hCB2-Sf9 membranes = molecular target: T3, hCB2-Sf9 membranes (Homo sapiens, UniProt P34972); test: CB2 in vitro functional assay, SPA based GTP-γ-35S binding, agonist mode (antibody capture); type: biochemical; settings: normalized to methanandamide, read-out: relative EC50 value for CB2
T3 construct: expressed in transfected cells; host or cells: Sf9 insect cells
Protocol: as §1, §2
hCB2-Sf9 membranes and GDP (1 uM final) are added to assay buffer and homogenized. Diluted compounds and membranes are added to the assay plate and pre-incubated for 15 minutes. This is followed by addition of GTP-γ-^35S ([…] final) and another 35 minute incubation. Next a mixture containing Nonidet P40 detergent (0.2% final), anti-Gi antibody (final dilution of 1:362), and 1.25 mg anti-rabbit antibody scintillation proximity assay beads are added. The plates are then sealed, vortexed, and incubated for an additional 2 hours before centrifuging and counting as for CB1.
To analyze data, first subtract background from all wells. […]

human CB2 receptor = molecular target: T4, human CB2 receptor (Homo sapiens, UniProt P34972); test: Displacement of 3H-CP55940 from human CB2 receptors; type: binding; settings: displacement of 3H-CP55940, human CB2 membrane homogenates
T4 construct: expressed in transfected cells
Protocol: as §3, §4

male Lewis rats = test: Monoiodoacetate (MIA) model, incapacitance testing; type: in vivo; settings: dosed once, rat MIA model
Protocol: Monoiodoacetate (MIA) Model
For all studies male Lewis rats of approximately 8 weeks of age at the time of MIA injection are used to measure pain in the MIA model. The rats are housed in groups of 2 or 3 per cage and maintained in a constant temperature and on a 12 hour light/12 hour dark cycle. Animals have free access to food and water at all times except during data collection.
In the standard MIA model the right knees of each rat are injected with 0.3 mg MIA in 50 ul of saline and the left knees with 50 ul of saline. Pain is measured at varying times after MIA injection (not normally before 10 day post MIA injection) using incapacitance testing. This measures the difference in hind paw weight bearing between the MIA and saline injected knees, and each measurement is the average of 3 separate measurements each measured over 1 second.
For studies with CB2 agonists rats are randomized into dose groups (n=5 or 6) and then dosed once with the compound under investigation. Dosing is staggered by 15 minutes for each rat and at a predetermined time post-dose (usually 2 hours), pain measured using incapacitance testing. Studies are routinely run with 4 groups, vehicle (1% carboxy methyl cellulose in water plus 0.25% polysorbate 80) and 3 compound groups which can be either single compounds at a single dose or the same compound at 3 doses. Results are reported as the difference in weight bearing between saline and MIA injected knees and statistical comparisons are made between vehicle treated and compound treated animals to assess the effect of compounds on knee pain in the model.

[1] = test system: Male Harlan Sprague-Dawley rats; test: Animal model of dural plasma protein extravasation (PPE); type: in vivo; settings: 10 mg/kg, 2 hours post po dose, rat; saline controls approximately 2.0, full prevention approximately 1.0

T1 sequence (P21554 whole entry): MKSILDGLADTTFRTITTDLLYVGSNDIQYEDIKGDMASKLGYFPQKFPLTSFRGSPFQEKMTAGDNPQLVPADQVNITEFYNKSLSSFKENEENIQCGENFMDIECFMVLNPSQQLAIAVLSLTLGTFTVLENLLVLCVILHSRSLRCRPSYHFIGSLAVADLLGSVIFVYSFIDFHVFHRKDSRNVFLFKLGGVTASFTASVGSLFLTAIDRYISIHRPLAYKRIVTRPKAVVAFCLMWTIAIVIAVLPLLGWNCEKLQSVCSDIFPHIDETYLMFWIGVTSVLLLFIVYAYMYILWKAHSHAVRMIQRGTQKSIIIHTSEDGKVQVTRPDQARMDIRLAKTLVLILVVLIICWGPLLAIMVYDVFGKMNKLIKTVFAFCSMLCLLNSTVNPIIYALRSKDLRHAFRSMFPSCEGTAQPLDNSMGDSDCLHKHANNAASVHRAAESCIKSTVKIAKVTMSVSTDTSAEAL
T3 sequence (P34972 whole entry): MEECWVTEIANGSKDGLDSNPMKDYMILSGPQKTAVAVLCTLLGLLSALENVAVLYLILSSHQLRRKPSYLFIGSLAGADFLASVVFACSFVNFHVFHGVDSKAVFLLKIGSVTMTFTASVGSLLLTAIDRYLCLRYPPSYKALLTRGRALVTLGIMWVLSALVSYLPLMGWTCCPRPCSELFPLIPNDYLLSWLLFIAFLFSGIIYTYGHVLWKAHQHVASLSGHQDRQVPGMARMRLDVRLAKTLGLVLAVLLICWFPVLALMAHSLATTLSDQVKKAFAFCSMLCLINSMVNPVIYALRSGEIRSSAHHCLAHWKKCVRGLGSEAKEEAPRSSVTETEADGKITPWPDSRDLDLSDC
T4 sequence (P34972 whole entry): as above

`CCN1CCN(c2nc(C)nc3c2nc(-c2ccccc2Cl)n3CCS(C)(=O)=O)CC1` [Example 2, 8-(2-Chlorophenyl)-6-(4-ethylpiperazin-1-yl)-2-methyl-9-(2-methylsulfonylethyl)purine hydrochloride] gave an EC50 (hCB1-CHO membranes) of 5560 nM, a Ki (rat CB2 receptor) of 48.7 nM and an EC50 (hCB2-Sf9 membranes) of 17.2 nM. It also gave a Ki (human CB2 receptor) of 28.4 nM.

In the case of `COC(=O)NCCn1c(-c2ccccc2Cl)nc2c(N3CCN(CCF)CC3)nc(C)nc21` [Example 16, Methyl N-[2-[8-(2-chlorophenyl)-6-[4-(2-fluoroethyl)piperazin-1-yl]-2-methyl-purin-9-yl]ethyl]carbamate hydrochloride], the EC50 (hCB1-CHO membranes) is reported as > 100000 nM and the EC50 (hCB2-Sf9 membranes) is reported as 13.5 nM.

In the case of `CC(=O)NCCn1c(-c2ccccc2Cl)nc2c(N3CCN(CCF)CC3)nc(C)nc21.Cl` [Example 17, N-[2-[8-(2-chlorophenyl)-6-[4-(2-fluoroethyl)piperazin-1-yl]-2-methyl-purin-9-yl]ethyl]acetamide hydrochloride], the “pain versus vehicle (difference in hind paw weight bearing)” value (male Lewis rats; dose 0.1 mg/kg) is reported as “reduce pain versus vehicle”, the “pain versus vehicle (difference in hind paw weight bearing)” value (male Lewis rats; dose 0.3 mg/kg) is reported as “reduce pain versus vehicle” and the “pain versus vehicle (difference in hind paw weight bearing)” value (male Lewis rats; dose 1 mg/kg) is reported as “reduce pain versus vehicle”.

With `Cc1nc(N2CCN(C)CC2)c2nc(-c3ccccc3Cl)n(CCS(C)(=O)=O)c2n1.Cl` [Example 1, 8-(2-Chlorophenyl)-6-(4-methylpiperazin-1-yl)-2-methyl-9-(2-methylsulfonylethyl)purine hydrochloride] the “extravasation ratio (stimulated side over unstimulated side of dura)” value [1] was 1.12, the “pain versus vehicle (difference in hind paw weight bearing)” value (male Lewis rats; dose 0.3 mg/kg) was “reduce pain versus vehicle” and the “pain versus vehicle (difference in hind paw weight bearing)” value (male Lewis rats; dose 1 mg/kg) was “reduce pain versus vehicle”.

With `Cc1nc(N2CCN(C)CC2)c2nc(-c3ccccc3Cl)n(CC#N)c2n1` [Example 3, 2-[8-(2-Chlorophenyl)-2-methyl-6-(4-methylpiperazin-1-yl)purin-9-yl]acetonitrile hydrochloride] the Ki (rat CB2 receptor) was 12.6 nM and the Ki (human CB2 receptor) was 27.8 nM.

In the case of `CCN1CCN(c2nc(C)nc3c2nc(-c2ccccc2Cl)n3CCNC(C)=O)CC1.Cl` [Example 7, N-[2-[8-(2-Chlorophenyl)-6-(4-ethylpiperazin-1-yl)-2-methyl-purin-9-yl]ethyl]acetamide hydrochloride], the “extravasation ratio (stimulated side over unstimulated side of dura)” value [1] is reported as 1.18.
